Measurements from US20230310445A1, “LOX ENZYME INHIBITING METHODS AND COMPOSITIONS” (ANOVIA BIOSCIENCES, INC., priority 2020, published 2023).

What was measured:
[1] = molecular target: T1, Recombinant human LOXL2 (lysyl oxidase like 2) (Homo sapiens, UniProt Q9Y4K0); experiment: LOXL2 inhibition assay (fluorometric, cadaverine/Amplex Red/HRP); format: biochemical; settings: IC50 class; recombinant human LOXL2, cadaverine substrate; read-out: Activity Range LOXL2
T1 construct: purchased R&D systems
T1 sequence (Q9Y4K0 26-774): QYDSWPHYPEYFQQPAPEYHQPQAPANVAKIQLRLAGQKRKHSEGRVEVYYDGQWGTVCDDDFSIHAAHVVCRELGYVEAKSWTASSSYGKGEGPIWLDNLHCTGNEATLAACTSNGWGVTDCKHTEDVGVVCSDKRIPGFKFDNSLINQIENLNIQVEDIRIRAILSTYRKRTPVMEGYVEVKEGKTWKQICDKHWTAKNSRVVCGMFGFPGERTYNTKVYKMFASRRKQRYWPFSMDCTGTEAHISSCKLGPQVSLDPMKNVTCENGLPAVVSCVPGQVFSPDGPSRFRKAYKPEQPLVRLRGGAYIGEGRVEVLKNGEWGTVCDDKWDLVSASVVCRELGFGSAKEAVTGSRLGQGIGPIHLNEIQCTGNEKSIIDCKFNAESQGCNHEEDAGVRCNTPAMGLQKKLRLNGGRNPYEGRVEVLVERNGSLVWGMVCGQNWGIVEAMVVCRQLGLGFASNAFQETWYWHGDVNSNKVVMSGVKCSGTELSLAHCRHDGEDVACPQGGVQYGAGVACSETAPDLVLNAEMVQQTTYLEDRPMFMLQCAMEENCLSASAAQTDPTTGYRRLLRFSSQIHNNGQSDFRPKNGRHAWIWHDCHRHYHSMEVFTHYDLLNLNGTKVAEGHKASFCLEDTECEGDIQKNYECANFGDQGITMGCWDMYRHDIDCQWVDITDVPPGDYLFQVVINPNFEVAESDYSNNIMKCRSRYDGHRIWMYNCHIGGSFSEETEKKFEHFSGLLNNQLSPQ
Description: (§1) The ability of compounds to inhibit one or more of the lysyl oxidases LOXL2 and/or LOXL3 was determined using a fluorometric assay. This assay measures the activity of lysyl oxidases by coupling the reaction with horseradish peroxidase-catalyzed […]. The activity assay protocol uses cadaverine as substrate that releases hydrogen peroxide upon transformation by the specific LOX family enzyme present in the sample. Hydrogen peroxide is in turn detected using a red fluorescence substrate for HRP-coupled reactions (Amplex Red Enzyme Assays, Thermo Scientific Fisher). This leads to increase in fluorescence that can be easily detected at Ex/Em=540/590 nm in a fluorescence microplate reader.
Enzymes: Recombinant human LOXL2 (lysyl oxidase like 2) and recombinant human LOXL3 (lysyl oxidase like 3) were purchased from R&D systems and assays were performed in 1.2 M urea, 50 mM sodium borate buffer pH 8.0, and 10 mM CaCl.
Reaction: Final concentration in the LOXL2 and LOXL3 assays were as following and performed in a total volume of […]:
Experimental procedure: 5 μl of freshly prepared reaction buffer were delivered to reaction wells. Compounds were resuspended in 100% DMSO at 10 mM and delivered into buffer using acoustic technology (Echo550; nanoliter range). A 3× solution of LOXL2 or LOXL3 in reaction buffer was prepared (“enzyme solution”) and 5 μL of enzyme solution was added into the reaction wells. Buffer only was added to column 1 for no protein control. Reactions were incubated for 30 minutes at 37° C. A 3×mixture of cadaverine, Amplex Red, and HRP (“Substrate/Detection Mix) was prepared and subsequently 5 μL of the mixture added to each reaction well. Progress of reactions was monitored for 60 minutes at 37° C. using Clariostar plate reader (ex 530-12, ems 600-40). For all activity assays, pan-LOX inhibitor CCT365623 (Tang et al, 2017) and LOXL2/LOXL3 inhibitor PAT-1251 (PharmaKea) were included as standards.
Data analysis: Slope of the linear portion of the progress curve was calculated using Clariostar software. Typical analysis interval was between 8-30 min, but varied between experiments. The background subtracted signals (No protein wells are considered as background) were converted to % activity relative to DMSO controls. Data was analyzed using GraphPad Prism 4 with “sigmoidal dose-response (variable slope)”; 4 parameters with Hill Slope. Constraints: Bottom=Constant equal to 0. Top=Must be less than 120.

[2] = molecular target: T2, Bovine lysyl oxidase (LOX) (Bos taurus, UniProt P33072); experiment: LOX inhibition assay (fluorometric, cadaverine/Amplex Red/HRP); format: biochemical; settings: IC50 class; bovine tendon LOX, cadaverine substrate; read-out: Activity Range LOX
T2 construct: from tissue; host or cells: adult bovine tendon
T2 sequence (P33072 170-418): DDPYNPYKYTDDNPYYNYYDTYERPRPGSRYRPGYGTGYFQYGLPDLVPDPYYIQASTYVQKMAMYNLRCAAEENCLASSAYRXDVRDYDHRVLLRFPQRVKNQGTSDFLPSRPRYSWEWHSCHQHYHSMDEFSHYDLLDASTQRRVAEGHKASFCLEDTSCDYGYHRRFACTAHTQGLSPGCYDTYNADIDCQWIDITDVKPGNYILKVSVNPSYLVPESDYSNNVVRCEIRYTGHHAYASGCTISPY
Description: as §1, with “prototypic LOX” for “one or more of the lysyl oxidases LOXL2 and/or LOXL3”, “prototypic” for “the specific”, “LOX” for “LOX family”
Enzyme: Bovine lysyl oxidase (LOX) was extracted by adapting the methodology from [Kagan et al. 1979 and Borel et al. 2001.] from bovine tendon: Frozen adult bovine tendon was placed in room temperature water to defrost, and then membranes were removed and the remaining tissue cut into 1 cm pieces. The material was first passed through a course mesh meat grinder, and this mince was passed through a fine mesh grinder. The mince was homogenized in 10 v/w of buffer (16 mM sodium phosphate buffer pH 7.8, 400 mM NaCl) using a Waring blender. The homogenate was centrifuged at 15,000×g for 15 min at 4° C. After centrifugation, the supernatant was discarded and the pellets resuspended in 10 volumes of the same buffer. The mixture was blended again and centrifuged with the same settings. This time the pellets were blended in 3 volumes of extraction buffer (16 mM sodium phosphate buffer pH 7.8) and left to incubate at 4° C. for 2 h. After this time, the slurry was centrifuged with the same settings as described above. The supernatant was used in an ultrafiltration step to remove large proteins by size exclusion through a 30 kDalton filter (EMD Millipore). The filtrate was mixed with DEAE Sephadex (GE Healthcare), or passed over a MonoQ FPLC column. After two washes, one in 16 mM sodium phosphate buffer pH 7.8, 380 mM NaCl, and another in 16 mM sodium phosphate buffer pH 7.8, the proteins were eluted with 16 mM sodium phosphate pH 7.8, 10 μM CuSO4, and 4 M urea. Fractions containing Lox activity were collected and stored frozen at −70° C.
Reaction: Final concentration in the LOX assay was as following and performed in a total volume of […]:
Experimental procedure: 7 μl of freshly prepared reaction buffer were delivered to reaction wells. Compounds were resuspended in 100% DMSO at 10 mM and delivered into buffer using acoustic technology (Echo550; nanoliter range). A 2.85× solution of LOX protein in reaction buffer was prepared (“LOX solution”) and 7 μl of LOX solution was added into the reaction wells. Buffer only was added to column 1 for no protein control. Reactions were incubated for 30 minutes at 37° C. A 3.33× mixture of cadaverine, Amplex Red, and HRP (“Substrate/Detection Mix) was prepared and subsequently 6 μL of the mixture was added to each reaction well. Progress of reactions was monitored for 120 minutes at 37° C. using Clariostar plate reader (ex530-12, ems 600-40). For all activity assays, pan-LOX inhibitor CCT365623 (Tang et al, 2017) and LOXL2/LOXL3 inhibitor PAT-1251 (PharmaKea) were included as standards.
Data analysis: Slope of the linear portion of the progress curve was calculated using Clariostar software. Typical analysis interval was between 20-50 min, but varied between experiments. The background subtracted signals (No protein wells were considered as background) were converted to % activity relative to DMSO controls. Data was analyzed using GraphPad Prism 4 with “sigmoidal dose-response (variable slope)”; 4 parameters with Hill Slope. Constraints: Bottom=Constant equal to 0. Top=Must be less than 120.

Row | IC50 [1] [nM] | IC50 [2] [nM] | SMILES
1 | 500 to 1000 | > 30000 | CS(=O)(=O)N1C[C@H](Oc2cc(CN)ccc2F)C[C@H](c2ccccc2F)C1 (racemic) [Example 71, cis-(4-Fluoro-3-((-5-(2-fluorophenyl)-1-(methylsulfonyl)piperidin-3-yl)oxy)phenyl)methanamine 2,2,2-trifluoroacetate]
2 | 1000 to 30000 | 1000 to 30000 | CS(=O)(=O)[C@@H]1C[C@H](Oc2ccc(CN)cc2)CN(c2ccccc2)C1 (racemic) [Example 20, cis-(4-((-5-(Methylsulfonyl)-1-phenylpiperidin-3-yl)oxy)phenyl)methanamine2,2,2-trifluoroacetate]
3 | ≤ 500 | > 30000 | CS(=O)(=O)N1C[C@H](Oc2cc(CN)ccc2F)C[C@H](c2ccccc2)C1 (racemic) [Example 69, cis-(4-Fluoro-3-((-1-(methylsulfonyl)-5-phenylpiperidin-3-yl)oxy)phenyl)methanamine 2,2,2-trifluoroacetate]
4 | 1000 to 30000 | > 30000 | NCc1cccc(O[C@@H]2C[C@H](c3ccccc3)CN(C(=O)N3CCOCC3)C2)c1 (racemic) [Example 72]

Second part, the molecule before the results:

Row | SMILES | IC50 [1] [nM] | IC50 [2] [nM]
5 | NCc1cnc(S(=O)(=O)N2C[C@@H](C(=O)N3CCS(=O)(=O)CC3)C[C@@H](c3ccccc3)C2)s1 (racemic) [Example 112, cis-(1-((5-(Aminomethyl)thiazol-2-yl)sulfonyl)-5-phenylpiperidin-3-yl)(1,1-dioxidothiomorpholino)methanone 2,2,2-trifluoroacetate] | ≤ 500 | 1000 to 30000
6 | NCc1cnc(S(=O)(=O)N2C[C@@H](C(=O)N3CCOCC3)C[C@@H](c3ccccc3)C2)s1 (racemic) [Example 111, cis-(1-((5-(Aminomethyl)thiazol-2-yl)sulfonyl)-5-phenylpiperidin-3-yl)(morpholino)methanone 2,2,2-trifluoroacetate] | 500 to 1000 | > 30000
7 | CN1CCN(C(=O)[C@H]2C[C@@H](c3ccccc3)CN(S(=O)(=O)c3ccc(CN)s3)C2)CC1 (racemic) [Example 17, cis-(1-((5-(Aminomethyl)thiophen-2-yl)sulfonyl)-5-phenylpiperidin-3-yl)(4-methylpiperazin-1-yl)methanone 2,2,2-trifluoroacetate] | ≤ 500 | 500 to 1000
8 | NCc1cnc(S(=O)(=O)N2C[C@H](C(=O)N3CCS(=O)(=O)CC3)C[C@@H](c3ccccc3)C2)s1 (racemic) [Example 112T, trans-(1-((5-(Aminomethyl)thiazol-2-yl)sulfonyl)-5-phenylpiperidin-3-yl)(1,1-dioxidothiomorpholino)methanone 2,2,2-trifluoroacetate] | 500 to 1000 | 1000 to 30000
9 | NCc1cccc(S(=O)(=O)[C@H]2C[C@H](C3CCCCC3)CN(C(=O)N3CCS(=O)(=O)CC3)C2)c1 (racemic) [Example 137T, trans-(3-((3-(Aminomethyl)phenyl)sulfonyl)-5-cyclohexylpiperidin-1-yl)(1,1-dioxidothiomorpholino)methanone] | ≤ 500 | > 30000
10 | NCc1cccc(S(=O)(=O)N2C[C@H](C(=O)N3CCOCC3)C[C@@H](C(F)(F)F)C2)c1 (racemic) [Example 110] | 1000 to 30000 | > 30000
11 | CN(C)C(=O)N1C[C@@H](C2CCCCC2)C[C@@H](S(=O)(=O)c2cccc(CN)c2)C1 (racemic) [Example 135, cis-3-((3-(Aminomethyl)phenyl)sulfonyl)-5-cyclohexyl-N,N-dimethylpiperidine-1-carboxamide] | ≤ 500 | > 30000
12 | CS(=O)(=O)[C@H]1C[C@@H](S(=O)(=O)c2ccc(CN)cc2)CN(c2ccccc2)C1 (racemic) [Example 22, cis-(4-((5-(Methylsulfonyl)-1-phenylpiperidin-3-yl)sulfonyl)phenyl)methanamine 2,2,2-trifluoroacetate] | ≤ 500 | 1000 to 30000
13 | CN(C)C(=O)[C@H]1C[C@H](S(=O)(=O)c2cccc(CN)c2)CN(C2CCCCC2)C1 (racemic) [Example 141T, trans-5-((3-(Aminomethyl)phenyl)sulfonyl)-1-cyclohexyl-N,N-dimethylpiperidine-3-carboxamide] | ≤ 500 | > 30000
14 | NCc1cccc(S(=O)(=O)N2C[C@@H](C(=O)N3CCOCC3)C[C@@H](c3ccccc3)C2)n1 (racemic) [Example 114, cis-(1-((6-(Aminomethyl)pyrid-2-yl)sulfonyl)-5-phenylpiperidin-3-yl)(morpholino)methanone] | > 30000 | –
